Measured values as given in patent US10406175B2, “Polymer-flavonoid conjugate and uses thereof” (Agency for Science, Technology and Research, priority 2014, dated 2019).

Experiments:
Format in all cases: cell-based, human
IL-6 = test: IL-1ß-induced IL-6 expression in OA chondrocytes (RT-PCR and ELISA); details: IL-1ß 5 ng/ml, 24 h; EGCG 10 μM; HA or conjugate at two concentrations (FIGS. 2, 5)
Protocol: (§1) Cryopreserved human osteoarthritis chondrocytes (passage 1) were obtained from Cell Applications, INC. (USA). The cells were thawed and cultured in T75 cell culture flasks using complete growth medium (DMEM/F12 medium supplemented with 10% FBS and 1% penicillin/streptomycin). The cells were maintained at 37° C. and 5% CO2 atmosphere. Growth medium was replaced every 2-3 days and the cells were subcultured at 80% confluency. Only cells at passage 2 and 3 were used in this study. After expansion, the cells were re-differentiated in alginate beads according to previously established protocol with some modifications. Briefly, cells were trypsinized, pelleted and resuspended in 1.2% (w/v) sodium alginate in 0.15 M NaCl. The cell suspension was dispensed through a 210 needle dropwise into gelation solution (102 mM CaCl2, 10 mM HEPES and 0.0005% Tween 20, pH 7.4). Approximately 15 alginate beads were dispensed in 5 ml of gelation solution in a 6-wellplate. After gelation for 10 min, the gelation solution was removed and the alginate beads were washed twice with 5 ml of 0.15 M NaCl. Complete growth medium (5 ml) was then added and the cells were re-differentiated for 8 days in the alginate beads. Medium was changed every 2-3 days. After 8 days, the alginate beads were solubilized in dissolution solution (55 mM EDTA and 10 mM HEPES, pH 7.4).

MMP-1 = test: IL-1ß-induced MMP-1 expression in OA chondrocytes (RT-PCR and ELISA); details: IL-1ß 5 ng/ml, 24 h; EGCG 10 μM; HA or conjugate at two concentrations (FIGS. 3, 6)
Protocol: as §1

MMP-13 = test: IL-1ß-induced MMP-13 expression in OA chondrocytes (RT-PCR and ELISA); details: IL-1ß 5 ng/ml, 24 h; EGCG 10 μM; HA or conjugate at two concentrations (FIGS. 3, 6)
Protocol: as §1

TNF-α = test: IL-1ß-induced TNF-α expression in OA chondrocytes (RT-PCR and ELISA); details: IL-1ß 5 ng/ml, 24 h; EGCG 10 μM; HA or conjugate at two concentrations (FIGS. 2, 5)
Protocol: as §1

MMP-3 = test: IL-1ß-induced MMP-3 expression in OA chondrocytes (RT-PCR and ELISA); details: IL-1ß 5 ng/ml, 24 h; EGCG 10 μM; HA or conjugate at two concentrations (FIGS. 3, 6)
Protocol: as §1

O=C(O[C@@H]1Cc2c(O)cc(O)cc2O[C@@H]1c1cc(O)c(O)c(O)c1)c1cc(O)c(O)c(O)c1 [EGCG, epigallocatechin gallate]
effectively inhibited: downregulation of IL-1ß-induced IL-6 gene and protein expression (IL-6) | downregulation of IL-1ß-induced MMP-1 gene and protein expression (MMP-1) | downregulation of IL-1ß-induced MMP-13 gene and protein expression (MMP-13) | downregulation of IL-1ß-induced TNF-α gene and protein expression (TNF-α) | downregulation of IL-1ß-induced MMP-3 gene and protein expression (MMP-3)
